Reference: US7615361B2, “Toxicity screening methods” (Ceetox, Inc., priority 2006, dated 2009)

Assays:
[1] = test system: SK-MEL28 cells; assay: Caspase 3 activity (apoptosis); type: cell-based, human
Description: Caspase 3 Procedure: Caspase 3 activity was determined using a caspase substrate (DEVD, Asp-Glu-Val-Asp) labeled with a fluorescent molecule, 7-Amino4-methylcoumarin (AMC). Caspase 3 cleaves the tetrapeptide between D and AMC, thus releasing the fluorogenic […] AMC. Following the test article exposure to cells in 96-well plates, medium was aspirated from plates and PBS added to each well. Plates were stored at −80° C. to lyse cells and store samples until further analysis. On the day of analysis, plates were removed from freezer and thawed. Caspase buffer with fluorescent substrate was added to each well and incubated at room temperature for 1 hr. AMC release was measured in a spectrofluorometer at an excitation wavelength of 360 nm and an emission wavelength of 460 nm. Values are expressed as relative fluorescent units (RFU).
Caspase Activity: After sample plates were completely thawed, the caspase substrate buffer mix was added to each plate. Plates were incubated at room temperature for 1hr, shielded from light. Plates were read using a in a spectrofluorometer at an excitation wavelength of 360 nm and an emission wavelength of 460 nm. Values were expressed as relative fluorescent units (RFU).
The key to the maximal response data can be found below Table 2.
Dosing solutions were prepared in complete culture medium.

[2] = Intracellular total glutathione (GSH); conditions: human
Description: Intracellular Glutathione (GSH) Levels: Intracellular glutathione levels were determined essentially as described by Griffith (1980) with modifications. At the end of the exposure period, the medium was removed from the cells and metaphosphoric acid (MPA) was added to each well. Plates were then shaken for 5 min at room temperature and stored at −20° C. until needed.
The sample plates were thawed just prior to analysis and centrifuged at >2000×g for at least 2 min. Sample aliquots were removed and transferred to a clean 96-well plate along with appropriate standard curve controls. Sample pH was neutralized just prior to analysis and each well received an aliquot of sodium phosphate reaction buffer containing EDTA, DTNB, NADPH, and glutathione reductase. The plates were mixed for 15-30 min at room temperature and glutathione content was determined calorimetrically with a Packard Fusion or equivalent reader at 415 nm.
Intracellular Glutathione (GSH) Levels: The assay is based on the concept that all GSH is oxidized to GSSG by DTNB reagent. Two molecules of GSH are required to make one molecule of GSSG. Total GSH was determined by reducing GSSG to 2GSH with glutathione reductase. A standard curve was prepared with oxidized glutathione (GSSG) over a range of concentrations. These concentrations are then converted to glutathione equivalents (GSX) essentially by multiplying the GSSG standard concentrations by 2. The amount of GSX expressed as pmoles/well was determined using the standard curve and regression analysis.
The test compound consisted of two parts mixed in a constant ratio of 5:1. The final test mixture consisted of Test mix 1 and Test mix 2, which were received as frozen solutions. The test mixture was tested in a ratio of 5:1 COMP A in five different cell types which included the following: SK-MEL28, human hepatocytes, HUVEC, C32, and NHEM cells. Cells were seeded into 96-well plates and cultured in medium containing 10% bovine serum. Following an equilibration period of 48 hr, the cells were treated with the test compound mix at concentrations of COMP A (μg/mL)=(250:50), (125:25), (25:12.5), (12.5:2.5), (2.5:1.25), (1.25:0.25), and (0.25:0.05) for 24 hr (overnight) at 37° C. in 5% CO2. […] Following an equilibration period of 4 hr, the cells were treated with the test compound mix at concentrations of COMP A (μg/mL)=(250:50), (125:25), (25:12.5), (12.5:2.5), (2.5:1.25), (1.25:0.25), and (0.25:0.05) for 24 hr (overnight) at 37° C. in 5% CO2.
Experimental Protocol: The test compounds were shipped on dry ice for testing. The compounds were stored frozen at −80° C. until needed. Dosing solutions were prepared in complete culture medium. SK-MEL28, human hepatocytes, HUVEC, C32, and NHEM cells were used as the test systems. Cells were seeded into 96-well plates and allowed to equilibrate for approximately 48 hr. Following the equilibration period the cells were exposed to the test compound mix at concentrations of COMP A (μg/mL)=(250:50), (125:25), (25:12.5), (12.5:2.5), (2.5:1.25), (1.25:0.25), and (0.25:0.05). Solubility was determined by Nephalometry techniques immediately after dosing and prior to harvesting the cells at 24 hr. Following the exposure period, the cells or their supernatant (culture medium) were analyzed for changes in cell proliferation, membrane leakage, mitochondrial function, oxidative stress, and apoptosis. The resultant exposure concentration response curves were graphed and analyzed for determining the concentration that produced a half maximal response or TC50.

[3] = test system: SK-MEL28 cells; assay: BrdU incorporation; type: cell-based, human; conditions: SK-MEL28, 24 hr exposure to 5 and 10 μM
Description: Bromodexoyurine (BrDU) Incorporation: This assay was used to monitor cumulative changes in DNA replication. The assay uses the thymidine analog BrdU to measure S-phase of cell replication and is considered to be the Gold Standard for cell proliferation. BrDU (10 μM) was included in the test compound dosing solution to allow BrDU incorporation during cell replication. BrDU was included for the duration of the exposure, 24 hr. After completion of exposure period, the cells were fixed and labeled with mouse monoclonal anti-BrDU (FITC). Fluorescence was measured using a Packard Fusion or equivalent plate reader at 485 nm excitation and 530 nm emission.
Bromodexoyurine (BrDU) Incorporation: After incubation, the test compound/BrDU solution was removed and cells were fixed. A solution containing mouse monoclonal anti-BrDU (FITC) was added and fluorescence was measured. Data were collected as relative fluorescent units (RFU). The blank was subtracted from the final well RFU. It represents the average of the first and last columns which contain no cells on that particular plate. The controls are untreated cells allowed to grow on the same plate. The compounds are represented by several separate RFU data points for each of the tested concentrations. The percent change relative to controls was calculated by dividing the average RFU by the control cell RFU and multiplying by 100.
Experiments were also conducted to verify the relationship between exposure time and the observed cytostatic effects of the test compound. An additional assay was used to monitor cumulative change in DNA replication. The assay uses the thymidine analog BrdU to measure S-phase of cell replication and is considered to be the Gold Standard for cell proliferation. […] The BrdU assay paralleled the MTT and propidium iodide assays. The apparent lower sensitivity of the BrdU assay is a reflection of the experimental design not the assay. BrdU data represents a cumulative effect from the beginning of exposure while the other assays are measuring one is remaining at the end of either the 24 hr or 72 hr exposure period. […] There was a trend toward increasing activity in caspase-3, a marker for cell apoptosis.

SMILES: CC[C@@]1(O)C(=O)OCc2c1cc1n(c2=O)Cc2cc3ccccc3nc2-1 [CAMPTOTHECIN, Camptothecin]
- Caspase 3 Activity (Index/Dose): Index ([1]; SK-MEL28, 24 HR): 3 (400-600 = 3)
- Caspase 3 Activity (Index/Dose): Index ([1]; SK-MEL28, 24 HR, COMP A (LOW) / controls #2): 3 (400-600 = 3)
- Caspase 3 Activity (Index/Dose): Dose ([1]; SK-MEL28, 24 HR, run #2, controls (μM section)): 100
- Caspase 3 Activity (Index/Dose): Dose ([1]; SK-MEL28, 24 HR, controls (μM section of table)): 300
- Caspase 3 Activity (Index/Dose): Index ([1]; SK-MEL28, 72 HR, COMP A (LOW) / controls #2): 3 (400-600 = 3)
- Caspase 3 Activity (Index/Dose): Dose ([1]; SK-MEL28, 72 HR, run #2, controls (μM section)): 100
- CC50 at 24 h ([2]; C32 cells): 1000 nM
- CC50 at 24 h ([2]; HUVEC cells): 1000 nM
- CC50 at 24 h ([2]; human hepatocytes): 44000 nM
- Cell proliferation as measured by the S-phase marker BrdU [3]: undetectable
